The test system of experiment [1] is transgenic hCETP mice. In words: In vivo activity in transgenic hCETP mice. The settings on record: 100 ppm in the feed; one week. The procedure: In Vivo Activity in Transgenic hCETP Mice
Transgenic mice from in-house breeding (Dinchuck, Hart, Gonzalez, Karmann, Schmidt, Wirak; BBA (1995), 1295, 301) were administered the substances to be tested in the feed. Before the start of the experiment, blood was taken retro-orbitally from the mice in order to determine cholesterol and triglycerides in the serum. The serum was obtained as described above for hamsters by incubation at 4° C. overnight and subsequent centrifugation at 6000×g. After one week, blood was again taken from the mice in order to determine lipoproteins and triglycerides. The change in the parameters measured is expressed as a percentage change compared with the starting value.

For experiment [2], the target named is T1, cholesterol ester transfer protein (CETP) (Homo sapiens, UniProt P11597).
T1 construct: CETP is obtained from human plasma in partially purified form; from tissue; host or cells: human plasma (partially purified by centrifugation, phenyl-Sepharose, CM-Sepharose, Mono Q)
T1 sequence (P11597 18-493): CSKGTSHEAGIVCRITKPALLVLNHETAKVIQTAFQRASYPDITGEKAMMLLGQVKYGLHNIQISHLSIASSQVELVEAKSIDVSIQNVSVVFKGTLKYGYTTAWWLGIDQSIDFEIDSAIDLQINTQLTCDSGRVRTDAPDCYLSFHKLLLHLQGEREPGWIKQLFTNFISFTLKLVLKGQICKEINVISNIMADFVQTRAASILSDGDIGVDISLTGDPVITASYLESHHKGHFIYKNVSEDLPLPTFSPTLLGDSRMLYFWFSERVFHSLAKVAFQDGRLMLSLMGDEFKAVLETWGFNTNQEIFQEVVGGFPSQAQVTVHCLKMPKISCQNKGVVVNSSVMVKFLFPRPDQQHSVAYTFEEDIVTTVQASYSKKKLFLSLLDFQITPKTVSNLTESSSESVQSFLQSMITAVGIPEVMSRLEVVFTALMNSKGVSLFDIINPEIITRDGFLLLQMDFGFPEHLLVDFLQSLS
As to the kind of experiment: CETP inhibition testing (transfer of 3H-cholesterol ester from HDL to biotinylated LDL). The conditions noted are these: substance concentration at which transfer is reduced by half; 18 h at 37° C. In kind it is biochemical. The procedure: CETP is obtained from human plasma in partially purified form by differential centrifugation and column chromatography and used for the test. To this end, human plasma is adjusted to a density of 1.21 g per ml using NaBr and centrifuged at 4° C. for 18 h at 50,000 rpm. The bottom fraction (d>1.21 g/ml) is applied to a Sephadex®phenyl-sepharose 4B (Pharmacia) column, washed with 0.15 M NaCl/0.001 M trisHCl pH 7.4 and then eluted with distilled water. The CETP-active fractions are pooled, dialysed against 50 mM Na acetate pH 4.5 and applied to a CM-Sepharose® (Pharmacia) column. The column is then eluted using a linear gradient (0-1 M NaCl). The pooled CETP fractions are dialysed against 10 mM tris HCl pH 7.4 and then further purified by chromatography on a Mono Q® column (Pharmacia).
Obtainment of radiolabelled HDL
50 ml of fresh human EDTA plasma are adjusted to a density of 1.12 using NaBr and centrifuged at 50,000 rpm for 18 h at 4° C. in a Ty 65 rotor. The upper phase is used to obtain cold LDL. The lower phase is dialysed against 3×4 l of PDB buffer (10 mM tris/HCl pH 7.4, […], 1 mM EDTA, 0.02% NaN3). 20 μl of ^3 H-cholesterol (Dupont NET-725; 1 μC/μl dissolved in ethanol!) are then added per 10 ml of retentate volume and the mixture is incubated under N2 at 37° C. for 72 h. […]
To test the CETP activity, the transfer of ^3 H-cholesterol ester from human HD lipoproteins to biotinylated LD lipoproteins is measured.
The reaction is ended by addition of streptavidin-SPA®beads (Amersham) and the transferred radioactivity is determined directly in a liquid scintillation counter.
In the test mixture, 10 μl of HDL-^3 H-cholesterol ester (~50,000 cpm) are incubated at 37° C. for 18 h with 10 μl of biotin-LDL (Amersham) in 50 mM Hepes/0.15 M NaCl/0.1% bovine serum albumin/0.05% NaN3 pH 7.4 with 10 μl of CETP (1 mg/ml) and 3 μl of solution of the substance to be tested (dissolved in 10% DMSO/1% RSA). 200 μl of the SPA-streptavidin bead solution (TRKQ 7005) are then added, the mixture is incubated further for 1 h with shaking and then measured in the scintillation counter. […]

Experiment [3] has as its system CETP. As to the kind of experiment: Ex vivo activity: CETP activity in serum of treated hamsters. More on the design: species or system Syrian golden hamsters. The conditions noted are these: hamster serum; for ED50 (ex vivo activity): up to 24 hours after administration. The procedure: Ex Vivo Activity of the Compounds According to the Invention
Syrian golden hamsters from in-house breeding are anaesthetized after fasting for 24 hours (0.8 mg/kg of atropine, 0.8 mg/kg of Ketavet® s.c., 30' later 50 mg/kg of Nembutal i.p.). The jugular vein is then exposed and cannulated. The test substance is dissolved in a suitable solvent (as a rule Adalat placebo solution: 60 g of glycerol, 100 ml of H2 O, PEG-400 to 1000 ml) and administered to the animals via a PE catheter inserted in the jugular vein. The control animals receive the same volume of solvent without test substance. The vein is then tied off and the wound is closed. The administration of the test substances can also be carried out p.o., by orally administering the substances dissolved in DMSO and suspended in 0.5% Tylose by means of a stomach tube. The control animals receive identical volumes of solvent without test substance.
After various times--up to 24 hours after administration--blood (about 250 μl) is taken from the animals by puncture of the retro-orbital venous plexus. Clotting is ended by incubation at 4° C. overnight, then centrifugation is carried out at 6000×g for 10 minutes. In the serum thus obtained, CETP activity is determined by the modified CETP test. As for the CETP test described above, the transfer of ^3 H-cholesterol ester from HD lipoproteins to biotinylated LD lipoproteins is measured.
The reaction is ended by addition of Streptavidin-SPA® beads (Amersham) and the transferred radioactivity is determined directly in the liquid scintillation counter.
The test mixture is carried out as described under "CETP test". For the testing of the serum, only 10 μl of CETP are replaced by 10 μl of the corresponding serum samples. As controls, corresponding incubations with sera of untreated animals are used.
The activity transferred in the control mixtures with control sera is rated as 100% transfer. The substance concentration at which this transfer is reduced to a half is indicated as the ED50 value.

Experiment [4] deals with HDL cholesterol. As to the kind of experiment: In vivo activity: oral action on lipoproteins (HDL rise) in hamsters. The conditions noted are these: Dose 2 × 10 mg/kg, hamster, up to 24 hours. Further details: species or system Syrian golden hamsters. The procedure:
In Vivo Activity of the Compounds According to the Invention
In experiments to determine the oral action on lipoproteins and triglycerides, test substance dissolved in DMSO and 0.5% Tylose suspended by means of a stomach tube are administered orally to Syrian golden hamsters from in-house breeding. To determine the CETP activity, blood (about 250 μl) is taken by retro-orbital puncture before the start of the experiment. The test substances are then administered orally by means of a stomach tube. The control animals receive identical volumes of solvents without test substance. The feed is then withdrawn from the animals and blood is taken at various times--up to 24 hours after substance administration--by puncture of the retro-orbital venous plexus.
Clotting is ended by incubation at 4° C. overnight, then centrifugation at 6000×g is carried out for 10 minutes. In the serum thus obtained, the content of cholesterol and triglycerides is determined with the aid of modified commercially available enzyme tests (cholesterol enzymatic 14366 Merck, triglycerides 14364 Merck). Serum is suitably diluted using physiological saline solution.
100 μl of serum dilution are mixed with 100 μl of […] in 96-hole plates and incubated at room temperature for 10 minutes. The optical density is then determined at a wavelength of 492 nm using an automatic plate-reading apparatus. The triglyceride or cholesterol concentration contained in the samples is determined with the aid of a standard curve measured in parallel.
The determination of the content of HDL cholesterol is carried out according to the manufacturer's instructions after precipitation of the ApoB-containing lipoproteins by means of a reagent mixture (Sigma 352-4 HDL cholesterol reagent).

By IC50 is commonly meant the concentration needed to halve the response being measured. As usually defined, the % Inhibition is the percentage by which the read-out fell short of the control. Low readings indicate a response near the control, high ones a response far below the control. For `CC(C)c1nc2c(c(-c3ccc(F)cc3)c1C(F)c1ccc(C(F)(F)F)cc1)C(O)c1ccccc1-2` (stereo not drawn) [Example 14], in experiment [1], the “HDL (percentage change compared with the starting value)” value is on record as 22.0%, the “LDL (percentage change compared with the starting value)” value was -10.5% and the “Triglyceride (percentage change compared with the starting value)” value was -9.7%. Also, the midpoint of inhibition in experiment [2], the IC50, lay at 60 nM. In experiment [3], the “% Inhibition at 10 mg/kg” value came to 64.0% and the “ED50 (ex vivo activity)” value is given as under 10 mg/kg.

For `OC1c2ccccc2-c2nc(C3CCCC3)c(C(F)c3ccc(C(F)(F)F)cc3)c(-c3ccc(F)cc3)c21` (stereo not drawn) [Example 18], the “% HDL rise” value in experiment [4] was determined as 3.3%.

Take `O=C(c1ccc(C(F)(F)F)cc1)c1c(C2CCCC2)nc2c(c1-c1ccc(F)cc1)C(O)c1ccccc1-2` (stereo not drawn) [Example 19]: in experiment [4], the “% HDL rise” value is given as 17.1%. For the same molecule, in experiment [3], the “% Inhibition at 10 mg/kg” value was determined as 46.0% and the “ED50 (ex vivo activity)” value is recorded as over 10 mg/kg.

Take `OC1c2ccccc2-c2nc(C3CCCC3)c(Cc3ccc(C(F)(F)F)cc3)c(-c3ccc(F)cc3)c21` (stereo not drawn) [Example 20]: the “% HDL rise” value in experiment [4] is 11.14%.

In turn, `OC(c1ccc(Cl)c(C(F)(F)F)c1)c1c(C2CCCC2)nc2c(c1-c1ccc(F)cc1)C(O)c1ccccc1-2` (stereo not drawn) [Example 22] came in with a 50% inhibitory concentration (IC50) in experiment [2] of 240 nM.

Take `CC(C)c1nc2c(c(-c3ccc(F)cc3)c1C(F)c1ccc(C(F)(F)F)cc1)C(O)c1cc(Cl)c(Cl)cc1-2` (stereo not drawn) [Example 27]: the IC50 in experiment [2] is 300 nM.

With `O=C1c2cccc(F)c2-c2nc(C3CCCC3)c(C(F)c3ccc(C(F)(F)F)cc3)c(-c3ccc(F)cc3)c21` (stereo not drawn) [Example 29], in experiment [3], the “% Inhibition at 10 mg/kg” value is listed as 17.2% and the “ED50 (ex vivo activity)” value was over 10 mg/kg.

(Values after patent US6063788A, “Bicyclic-fused pyridines” (Bayer Aktiengesellschaft, priority 1996, dated 2000).)
